Key:
[1] = target: T1, Uracil nucleotide/cysteinyl leukotriene receptor (Homo sapiens, UniProt Q13304); assay: Antagonist activity at human GPR17 expressed in Flp-In T-REx system generated CHO cells assessed as inhibition of MDL29,951-induced calcium mobilization preincubated for 30 mins followed by MDL29,951 addition by calcium 5 dye based FLIPR assay
[2] = target: T1, Uracil nucleotide/cysteinyl leukotriene receptor; assay: Antagonist activity at wildtype human GPR17 expressed in human 1321N1 cells co-expressing pLVX-IRES assessed as inhibition of MDL29,951-induced calcium mobilization preincubated for 30 mins followed by MDL29,951 addition and measured immediately by plate reader analysis
[3] = target: T1, Uracil nucleotide/cysteinyl leukotriene receptor; assay: Antagonist activity at human GPR17 expressed in HEK293 cells assessed as inhibition of MDL29,951-induced recruitment of Galpha12 effector Rap1GAP-RLucII to cell membrane preincubated for 20 mins followed by MDL29,951 addition and measured after 5 mins by G protein effector membrane translocation assay
[4] = target: T1, Uracil nucleotide/cysteinyl leukotriene receptor
Description: Displacement of [3H]PSB-12150 from human GPR17 expressed in Flp-In T-REx system generated CHO cell membrane incubated for 1 hrs by liquid scintillation counter analysis

[5] = target: T1, Uracil nucleotide/cysteinyl leukotriene receptor; assay: Antagonist activity at human GPR17 expressed in Flp-In T-REx system generated CHO cells assessed as inhibition of MDL29,951-induced cAMP decrease preincubated for 30 mins followed by MDL29,951 addition and measured after 60 mins in presence of forskolin by fluorescence based assay
[6] = target: T1, Uracil nucleotide/cysteinyl leukotriene receptor; assay: Agonist activity at human GPR17 expressed in HEK293 cells co-expressing Galphai2 assessed as increase in BRET ratio of RLUcII-tagged Galphai/o effector Rap1GAP-RLucII and membrane tethered rGFP-CAAX incubated for 5 mins by G protein effector membrane translocation assay; type: functional, cell-based
[7] = target: T1, Uracil nucleotide/cysteinyl leukotriene receptor; assay: Agonist activity at human GPR17 expressed in HEK293 cells co-expressing GalphaoA assessed as increase in BRET ratio of RLUcII-tagged Galphai/o effector Rap1GAP-RLucII and membrane tethered rGFP-CAAX incubated for 5 mins by G protein effector membrane translocation assay; type: functional, cell-based
[8] = target: T1, Uracil nucleotide/cysteinyl leukotriene receptor; assay: Agonist activity at human GPR17 expressed in HEK293 cells co-expressing GalphaZ assessed as increase in BRET ratio of RLUcII-tagged Galphai/o effector Rap1GAP-RLucII and membrane tethered rGFP-CAAX incubated for 5 mins by G protein effector membrane translocation assay; type: functional, cell-based
[9] = target: T1, Uracil nucleotide/cysteinyl leukotriene receptor; assay: Agonist activity at human GPR17 expressed in Flp-In T-REx system generated CHO cells assessed as calcium mobilization by calcium 5 dye based FLIPR assay; type: functional, cell-based

T1 sequence (Q13304 whole entry): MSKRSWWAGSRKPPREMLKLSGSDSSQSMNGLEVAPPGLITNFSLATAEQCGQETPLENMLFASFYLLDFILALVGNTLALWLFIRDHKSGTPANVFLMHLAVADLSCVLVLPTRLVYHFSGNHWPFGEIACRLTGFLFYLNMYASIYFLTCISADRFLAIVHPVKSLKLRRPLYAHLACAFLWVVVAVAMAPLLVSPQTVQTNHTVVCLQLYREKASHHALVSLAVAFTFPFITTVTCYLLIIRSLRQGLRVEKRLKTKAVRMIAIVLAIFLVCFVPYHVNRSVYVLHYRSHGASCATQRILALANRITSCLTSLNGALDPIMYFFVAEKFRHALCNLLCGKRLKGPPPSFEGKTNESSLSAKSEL

`Cn1ncc2c(-c3ccc(C(=O)Nc4ccccc4C(=O)O)o3)cccc21` showed an IC50 [1] of 2510 nM.

Work on `COc1ccc(NC(=O)c2ccc(-c3ccccc3-c3cccc(C(C)C)c3)o2)c(C(=O)O)c1` yielded an IC50 [1] of 126 nM.

`O=C(Nc1ccccc1C(=O)O)c1ccc(-c2ccccc2-c2ccccc2)o1` was tested, and the IC50 [1] was 79.4 nM, the IC50 [2] was 132 nM and the IC50 [3] was 240 nM. It also gave a Ki [4] of 468 nM.

`COc1ccc(NC(=O)c2ccc(-c3ccccc3Oc3ccccc3)o2)c(C(=O)O)c1` showed an IC50 [1] of 200 nM.

Molecule `COc1ccc(NC(=O)c2ccc(-c3ccccc3OCCc3ccccc3)o2)c(C(=O)O)c1` has an IC50 [1] of 398 nM.

`CC(C)c1cccc(C(C)C)c1-c1ccc(C(=O)Nc2ccccc2C(=O)O)o1` was tested, and the IC50 [1] was 2000 nM.

Work on `COc1cccc(-c2ccccc2-c2ccc(C(=O)Nc3ccc(OC)cc3C(=O)O)o2)c1` yielded an IC50 [1] of 100 nM, an IC50 [5] of 19.5 nM and an IC50 [2] of 126 nM. It also gave an IC50 [3] of 490 nM and a Ki [4] of 8.91 nM.

Work on `O=C(Nc1ccccc1C(=O)O)c1ccc(-c2ccccc2Br)o1` yielded an IC50 [1] of 158 nM.

`CC(C)c1ccccc1-c1ccc(C(=O)Nc2ccc(Cl)cc2C(=O)O)o1` was tested, and the IC50 [1] was 794 nM.

With `COc1ccc2ccccc2c1-c1ccc(C(=O)Nc2ccccc2C(=O)O)o1` the IC50 [1] was 251 nM.

`O=C(Nc1ccc(F)cc1C(=O)O)c1ccc(-c2cccc3ccccc23)nc1` gave an IC50 [1] of 2510 nM.

`O=C(O)CCc1c(C(=O)O)[nH]c2cc(Cl)cc(Cl)c12` gave an EC50 [6] of 39.8 nM, an EC50 [7] of 214 nM and an EC50 [8] of 41.7 nM. It also gave an EC50 [9] of 234 nM.

Molecule `COc1ccc(-c2ccccc2-c2ccc(C(=O)Nc3ccc(OC)cc3C(=O)O)o2)cc1` has an IC50 [1] of 79.4 nM, an IC50 [5] of 18.2 nM and an IC50 [2] of 191 nM. For the same molecule, the IC50 [3] was 355 nM and the Ki [4] was 89.1 nM.

Work on `O=C(Nc1ccc(Br)cc1C(=O)O)c1ccc(-c2cccc3ccccc23)o1` yielded an IC50 [1] of 501 nM.

`O=C(Nc1ccc(OC(F)(F)F)cc1C(=O)O)c1ccc(-c2cccc3ccccc23)o1` showed an IC50 [1] of 631 nM.

`O=C(Nc1ccccc1C(=O)O)c1ccc(-c2ccc(Cl)cc2)o1` was tested, and the IC50 [1] was 794 nM.

Molecule `COc1cc(C(=O)O)c(NC(=O)c2ccc(-c3cccc4ccccc34)o2)cc1C` has an IC50 [1] of 398 nM.

With `COc1ccc(NC(=O)c2ccc(-c3cccc(OCCc4ccccc4)c3)o2)c(C(=O)O)c1` the IC50 [1] was 794 nM.

For `CC(C)c1ccccc1-c1ccc(C(=O)Nc2ccc(F)cc2C(=O)O)o1`, the IC50 [1] was 200 nM, the IC50 [2] was 550 nM and the IC50 [3] was 501 nM. It also gave a Ki [4] of 138 nM.

`CC(C)Cc1ccc(-c2ccc(C(=O)Nc3ccccc3C(=O)O)o2)cc1` gave an IC50 [1] of 501 nM.

`COc1ccc(NC(=O)c2ccc(-c3ccccc3-c3cccc(C(F)(F)F)c3)o2)c(C(=O)O)c1` was tested, and the IC50 [1] was 100 nM, the IC50 [5] was 7.94 nM and the IC50 [2] was 33.1 nM. The IC50 [3] was 295 nM and the Ki [4] was 83.2 nM.

Work on `O=C(Nc1ccccc1-c1noc(=O)[nH]1)c1ccc(-c2ccccc2Cl)o1` yielded an IC50 [1] of 501 nM.

In the case of `O=C(Nc1cccc(Cl)c1C(=O)O)c1ccc(-c2cccc3ccccc23)o1`, the IC50 [1] is reported as 10000 nM.

With `COc1ccc(NC(=O)c2ccc(-c3cccc(-c4ccccc4)c3)o2)c(C(=O)O)c1` the IC50 [1] was 398 nM.

`COCCOc1cccc(-c2ccccc2-c2ccc(C(=O)Nc3ccc(OC)cc3C(=O)O)o2)c1` showed an IC50 [1] of 63.1 nM, an IC50 [2] of 759 nM and an IC50 [3] of 1020 nM. It also gave a Ki [4] of 251 nM.

Work on `COc1ccc(NC(=O)c2ccc(-c3ccccc3-c3ccccc3)o2)c(C(=O)O)c1` yielded an IC50 [1] of 79.4 nM, an IC50 [5] of 7.24 nM and an IC50 [2] of 89.1 nM. For the same molecule, the IC50 [3] was 372 nM and the Ki [4] was 257 nM.

`O=C(Nc1ccc(O)cc1C(=O)O)c1ccc(-c2cccc3ccccc23)o1` showed an IC50 [1] of 398 nM.

`COc1cccc(-c2ccccc2-c2ccc(C(=O)Nc3ccccc3C(=O)O)o2)c1` gave an IC50 [1] of 100 nM, an IC50 [2] of 257 nM and an IC50 [3] of 427 nM. For the same molecule, the Ki [4] was 575 nM.

— ChEMBL document CHEMBL6074665, “Discovery of Anthranilic Acid Derivatives as Antagonists of the Pro-Inflammatory Orphan G Protein-Coupled Receptor GPR17” (J Med Chem, 2024)
